Source: patent US12441775B2, “BCL-W polypeptides and mimetics for treating or preventing chemotherapy-induced peripheral neuropathy and hearing loss” (Dana-Farber Cancer Institute, Inc., priority 2016, dated 2025)

Legend:
calpain = assay: Calpain protease activity luminescence assay; type: cell-based, rat; conditions: DRG neurons treated 48 hours with paclitaxel, normalized to DMSO
Description: Calpain protease activity luminescence assay. DRG neurons in mass cultures were treated with vehicle (0.1% DMSO for 48h), paclitaxel (30 nM, 600 nM, or 1.2 μM for 48 hours), or calcium chloride (3 mM for 24 hours). Cultures were harvested in 1× Passive Lysis Buffer (Promega). The resulting lysate was spun 10,000×g for 5 min at 4° C., and 50 μL supernatant was combined with 50 μL Calpain-Glo Reagent (Promega) in a 96 well plate. The plate was shaken briefly and incubated for 40 min in the dark; luminescence intensity was measured with a microplate reader and normalized to protein concentration.

mice [1] = assay: Accelerating RotaRod motor function test; type: in vivo, mouse; conditions: paclitaxel-treated mice, 4 mg/kg every other day for 8 days
Description: (§1) Paclitaxel treatment and behavioral testing. 2 month old age-matched bclw−/− and bclw+/+ mice (17-30 g) of either sex were injected intraperitoneally (IP) with 4 mg/kg paclitaxel (Bristol-Myers Squibb) every other day for 8 days (4 total injections). Paclitaxel was prepared as 1 part 6 mg/ml paclitaxel stock solution diluted in vehicle (1:1 v/v Cremophor EL [EMD Millipore] and dehydrated ethanol) and 2 parts sterile saline and injected at 10 μl/g. Control mice were injected with 1 part vehicle and 2 parts saline. […] For three days prior to the baseline testing, mice were weighed, trained on an automated RotaRod apparatus (4 rpm for 1 min without falling), and habituated in von Frey cages. The next two days, baseline behavioral performance was assessed and averaged. The first paclitaxel injection was given three days later, and mice were weighed and behaviorally tested 10 days after the final injection. To assay motor function, mice were placed on the RotaRod with a ramp of 4-40 rpm and 0.4 rpm/sec acceleration, and latency to fall was measured. […] Withdrawal threshold was determined to be the applied force at which the animal withdrew the stimulated paw on at least 2 of 10 applications. […] Mouse behavior was assessed by an experimenter blind to genotype and condition.

mice [2] = assay: Epidermal footpad innervation (Tuj1-positive intraepidermal nerve fibers); type: in vivo, mouse
Description: as §1
Epidermal footpad innervation. […] Images were acquired and quantified in NIH ImageJ by an experimenter blind to condition.

With `CC(=O)O[C@H]1C(=O)[C@@]2(C)[C@H]([C@H](OC(=O)c3ccccc3)[C@]3(O)C[C@H](OC(=O)[C@H](O)[C@@H](NC(=O)c4ccccc4)c4ccccc4)C(C)=C1C3(C)C)[C@]1(OC(C)=O)CO[C@@H]1C[C@@H]2O` [paclitaxel] the “calpain activity (luminescence)” value (calpain) was “increased calpain activity in a dose-dependent manner”, the “motor function (latency to fall)” value (mice [1]) was “normal motor function” and the “intraepidermal nerve fiber number of the hindpaw” value (mice [2]; bclw−/− compared to bclw+/+ mice, thick and thin skin) was “greater reduction in intraepidermal nerve fiber number”. The “thick skin epidermal innervation” value (mice [2]; paclitaxel-treated compared with control mice (Example 12)) was “decreased thick skin epidermal innervation”.
